The structures appear in SMILES notation.

The text below walks through data of patent US20260308185A1, “STAT DEGRADERS AND USES THEREOF” (Recludix Pharma, Inc., priority 2023, published 2026).

Test [1] addresses T1, Recombinant STAT3 protein (STAT3(G127-I722)) (Homo sapiens, UniProt P40763).
T1 construct: Recombinant STAT3 protein (STAT3(G127-I722))
Kind of test: STAT3 Fluorescence Polarization (FP) Assay. The format is binding. The settings on record: 25 nM STAT3(G127-I722), 2 nM 5-FAM-GpYLPQTV-NH2 probe, pH 7.4, 45-minute incubation at room temperature. Here is the method:
An FP assay was developed to determine IC50 values for test substances. Recombinant STAT3 protein (STAT3(G127-I722)) at 25 nM was combined with a fluorescently labeled, phosphotyrosine peptide probe (5-FAM-GpYLPQTV-NH2) at 2 nM in FP buffer (10 mM HEPES pH 7.4, 50 mM NaCl. 1 mM EDTA, 0.05% Tween 20, 2 mM DTT). 50 μL of STAT3-probe mixture was added to serial diluted compounds in black, 96-well plates (Greiner BioOne 655076) to a final concentration of 1% DMSO. Reaction components were mixed, and FP was measured after 45-minute incubation at room temperature using a Tecan Spark multimode plate reader. FP signal (mP) was plotted against the log concentration of the test substances and IC50 values were calculated by nonlinear regression analysis using GraphPad Prism software. For STAT3 FP assay, A=≤100 nM; B=>100-1000 nM; C=>1-10 μM; and D=>10 μM.

Test [2] has as its system pSTAT6 (pY641-STAT6) in PBMC. Kind of test: MSD-pSTAT-PBMC Assay (pSTAT6). Format: cell-based. The settings on record: compound 3 hrs, then 1 ng/mL IL-4 for 10 min. The source says: Cryopreserved Peripheral Blood Mononuclear Cells (PBMC) are from AllCells. Recombinant Human […] and IL-6 are from Peprotech. Mouse monoclonal anti-STAT3 antibody, rabbit monoclonal anti-pY705-STAT3 antibody, rabbit monoclonal Anti-pY641-STAT6 antibody, and lysis buffer are from Cell Signaling Technology (CST). Mouse monoclonal anti-STAT6 antibody is from BioLegend. Assay plates, blocker, and anti-rabbit secondary antibody are from Meso Scale Discovery (MSD).
Cryopreserved PBMCs were thawed out and allowed to recover overnight in IMDM+10% heat-inactivated FBS prior to plating 50,000 (STAT3) or 25,000 (STAT6) cells per well in 96-well U-bottom tissue culture plates. Cells were treated with compound for 3 hrs, then stimulated with 10 ng/mL IL-6 (STAT3) or 1 ng/mL IL-4 (STAT6) for 10 min. Cells were then spun down and washed with ice-cold PBS prior to lysing the cell pellet with 1× lysis buffer (CST) with 1× HALT protease and phosphatase inhibitor cocktail (Thermo). Lysates were transferred to and incubated overnight at 4° C. with shaking in QuickPlex 96-well high bind assay plates (MSD) pre-coated overnight with 30 μL per well of 0.6 μg/mL mouse monoclonal anti-STAT3 antibody (STAT3) or 2 μg/mL mouse monoclonal anti-STAT6 antibody (STAT6) in 1×PBS, and pre-blocked for 1 hour with 3% Blocker-A (MSD). Captured protein in the assay plates were then washed and probed with 25 μL per well of 0.25 μg/ml rabbit monoclonal anti-pY705-STAT3 antibody (STAT3) or 0.18 μg/ml rabbit monoclonal Anti-pY641-STAT6 antibody (STAT6) in 1% Blocker-A for 1 hour at room temperature with shaking, then washed and probed with 25 ul per well of 1 ug/ml Sulfo-TAG Labeled Goat Anti-Rabbit Antibody (MSD) in 1% Blocker-A for 1 hour at room temperature with shaking. Assay plates were then washed and 150 μL of 1× Read Buffer-T (MSD) was added to each well prior to reading on an SQ120 MSD Plate Reader. Assay signal from each sample was subtracted by the signal from unstimulated control wells and normalized to DMSO control wells, IC50 values were calculated using Graph Pad Prism Dose-Response Nonlinear Regression with variable slope. For both pSTAT3 and pSTAT6 A=≤100 nM; B=>100-1000 nM; C=>1000-3000 nM; and D=>3 μM.

Test [3] concerns the target T2, Recombinant STAT6 protein (STAT6(W123-T658)) (Homo sapiens, UniProt P42226).
T2 construct: Recombinant STAT6 protein (STAT6(W123-T658))
T2 sequence (P42226 123-658): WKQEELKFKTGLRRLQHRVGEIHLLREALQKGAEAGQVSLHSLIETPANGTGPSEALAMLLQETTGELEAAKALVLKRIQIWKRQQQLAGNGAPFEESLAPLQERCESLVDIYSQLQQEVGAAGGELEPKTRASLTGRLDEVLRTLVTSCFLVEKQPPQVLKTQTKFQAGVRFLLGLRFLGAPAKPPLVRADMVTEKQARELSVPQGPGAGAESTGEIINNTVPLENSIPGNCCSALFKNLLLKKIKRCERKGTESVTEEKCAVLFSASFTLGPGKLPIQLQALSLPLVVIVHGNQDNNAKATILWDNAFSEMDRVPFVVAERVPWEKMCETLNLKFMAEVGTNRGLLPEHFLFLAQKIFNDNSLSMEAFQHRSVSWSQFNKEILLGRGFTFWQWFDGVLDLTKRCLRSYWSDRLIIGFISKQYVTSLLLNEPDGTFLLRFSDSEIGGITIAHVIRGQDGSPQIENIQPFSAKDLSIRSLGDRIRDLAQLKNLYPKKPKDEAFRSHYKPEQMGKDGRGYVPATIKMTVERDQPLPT
Kind of test: STAT6 Fluorescence Polarization (FP) Assay. The format is binding. Conditions: 250 nM STAT6(W123-T658), 2 nM 5-FAM-Ap[…]-NH2 probe, pH 7.4, 45-minute incubation at room temperature. The method, then:
An FP assay was developed to determine IC50 values for test substances. Recombinant STAT6 protein (STAT6(W123-T658)) at 250 nM was combined with a fluorescently labeled, phosphotyrosine peptide probe (5-FAM-Ap[…]-NH2) at 2 nM in FP buffer (10 mM HEPES pH 7.4, 50 mM NaCl, 1 mM EDTA, 0.05% Tween 20, 2 mM DTT). 50 μL of STAT6-probe mixture was added to serial diluted compounds in black, 96-well plates (Greiner BioOne 655076) to a final concentration of 1% DMSO. Reaction components were mixed, and FP w as measured after 45-minute incubation at room temperature using a Tecan Spark multimode plate reader. FP signal (mP) was plotted against the log concentration of the test substances and IC50 values were calculated by nonlinear regression analysis using GraphPad Prism software. For STAT6 FP assay. A=≤300 nM; B=>300-3000 nM; C=>3-30 μM; and D=>30 μM.

T1 sequence (P40763 127-722): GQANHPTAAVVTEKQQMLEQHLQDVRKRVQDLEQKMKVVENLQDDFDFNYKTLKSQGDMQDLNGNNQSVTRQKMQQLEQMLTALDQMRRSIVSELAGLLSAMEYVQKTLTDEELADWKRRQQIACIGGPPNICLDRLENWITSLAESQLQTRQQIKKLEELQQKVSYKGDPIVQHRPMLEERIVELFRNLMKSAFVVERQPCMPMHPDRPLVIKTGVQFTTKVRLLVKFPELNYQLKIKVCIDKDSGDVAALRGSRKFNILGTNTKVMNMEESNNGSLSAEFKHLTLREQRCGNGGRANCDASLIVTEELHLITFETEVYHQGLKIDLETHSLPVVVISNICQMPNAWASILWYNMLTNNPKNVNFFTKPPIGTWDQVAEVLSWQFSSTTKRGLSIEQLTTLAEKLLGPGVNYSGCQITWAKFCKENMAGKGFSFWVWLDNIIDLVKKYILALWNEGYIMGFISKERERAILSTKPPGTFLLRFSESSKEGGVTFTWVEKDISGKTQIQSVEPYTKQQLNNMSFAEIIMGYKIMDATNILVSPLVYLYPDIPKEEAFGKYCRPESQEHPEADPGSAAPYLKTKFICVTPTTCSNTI

In the case of `N#CC1CN(C(=O)C2CCC3CC4CC4CC(NC(=O)c4cc5cc(C(F)(F)P(=O)(O)O)ccc5s4)C(=O)N32)CC1c1cccc(OCCCCOc2ccc(C3CCC(=O)NC3=O)cc2)c1` [Compound 3, ((2-(((3S,6S,7aS,8aR,9aR)-3-((rel-3S,4R)-3-cyano-4-(3-(4-(4-(2,6-dioxopiperidin-3-yl)phenoxy)butoxy)phenyl)pyrrolidine-1-carbonyl)-5-oxodecahydro-1H-cyclopropa[d]pyrrolo[1,2-a]azocin-6-yl)carbamoyl)benzo[b]thiophen-5-yl)difluoromethyl)phosphonic acid], the concentration for half-maximal inhibition (IC50) is 1 to 10 µM in test [1], over 3 µM in test [2] and 0.3 to 3 µM in test [3].

With `O=C1CCC(N2Cc3c(C#CCCCCCCn4ccc([C@@H]5CN(C(=O)[C@@H]6CC[C@@H]7C[C@H]8C[C@H]8C[C@H](NC(=O)c8cc9cc(C(F)(F)P(=O)(O)O)ccc9s8)C(=O)N76)C6(CC6)C5)cc4=O)cccc3C2=O)C(=O)N1` (stereo partly drawn) [Compound 5, ((2-(((3S,6S,7aS,8aR,9aR)-3-((6R)-6-(1-(8-(2-(2,6-dioxopiperidin-3-yl)-1-oxoisoindolin-4-yl)oct-7-yn-1-yl)-2-oxo-1,2-dihydropyridin-4-yl)-4-azaspiro[2.4]heptane-4-carbonyl)-5-oxodecahydro-1H-cyclopropa[d]pyrrolo[1,2-a]azocin-6-yl)carbamoyl)benzo[b]thiophen-5-yl)difluoromethyl)phosphonic acid], the IC50 in test [1] lay within 0.1 to 1 µM; in test [2] it was 0.1 to 1 µM; in test [3] it was 0.3 to 3 µM.

Take `N#CC1CN(C(=O)C2CCC3CC4CC4CC(NC(=O)c4cc5cc(C(F)(F)P(=O)(O)O)ccc5s4)C(=O)N32)CC1c1cccc(OCCCCCC#Cc2cccc3c2CN(C2CCC(=O)NC2=O)C3=O)c1` [Compound 7, ((2-(((3S,6S,7aS,8aR,9aR)-3-((rel-3S,4R)-3-cyano-4-(3-((7-(2-(2,6-dioxopiperidin-3-yl)-1-oxoisoindolin-4-yl)hept-6-yn-1-yl)oxy)phenyl)pyrrolidine-1-carbonyl)-5-oxodecahydro-1H-cyclopropa[d]pyrrolo[1,2-a]azocin-6-yl)carbamoyl)benzo[b]thiophen-5-yl)difluoromethyl)phosphonic acid]: the IC50 is 0.1 to 1 µM in test [1], over 3 µM in test [2] and 0.3 to 3 µM in test [3].

For the compound `O=C1CCC(c2ccc(OCCCCCn3ccc([C@@H]4CN(C(=O)[C@@H]5CC[C@@H]6C[C@H]7C[C@H]7C[C@H](NC(=O)c7cc8cc(C(F)(F)P(=O)(O)O)ccc8s7)C(=O)N65)C5(CC5)C4)cc3=O)cc2)C(=O)N1` (stereo partly drawn) [Compound 10, ((2-(((3S,6S,7aS,8aR,9aR)-3-((6R)-6-(1-(5-(4-(2,6-dioxopiperidin-3-yl)phenoxy)pentyl)-2-oxo-1,2-dihydropyridin-4-yl)-4-azaspiro[2.4]heptane-4-carbonyl)-5-oxodecahydro-1H-cyclopropa[d]pyrrolo[1,2-a]azocin-6-yl)carbamoyl)benzo[b]thiophen-5-yl)difluoromethyl)phosphonic acid], the IC50 in test [1] was 0.1 to 1 µM; in test [2], 1 to 3 µM; in test [3], under 0.3 µM.

Take `N#CC1CN(C(=O)C2CCC3CC4CC4CC(NC(=O)c4cc5cc(C(F)(F)P(=O)(O)O)ccc5s4)C(=O)N32)CC1c1cccc(N2CCN(c3ccc4c(c3)[nH]c(=O)n4C3CCC(=O)NC3=O)CC2)c1` [Compound 13, ((2-(((3S,6S,7aS,8aR,9aR)-3-((rel-3S,4R)-3-cyano-4-(3-(4-(1-(2,6-dioxopiperidin-3-yl)-2-oxo-2,3-dihydro-1H-benzo[d]imidazol-5-yl)piperazin-1-yl)phenyl)pyrrolidine-1-carbonyl)-5-oxodecahydro-1H-cyclopropa[d]pyrrolo[1,2-a]azocin-6-yl)carbamoyl)benzo[b]thiophen-5-yl)difluoromethyl)phosphonic acid]: the 50% inhibitory concentration (IC50) in test [1] is 0.1 to 1 µM; in test [2], 0.1 to 1 µM; in test [3] it was under 0.3 µM.

As to `N#CC1CN(C(=O)C2CCC3CC4CC4CC(NC(=O)c4cc5cc(C(F)(F)P(=O)(O)O)ccc5s4)C(=O)N32)CC1c1cccc(OCCOCCOc2cccc3c2CN(C2CCC(=O)NC2=O)C3=O)c1` [Compound 15, ((2-(((3S,6S,7aS,8aR,9aR)-3-((rel-3S,4R)-3-cyano-4-(3-(2-(2-((2-(2,6-dioxopiperidin-3-yl)-1-oxoisoindolin-4-yl)oxy)ethoxy)ethoxy)phenyl)pyrrolidine-1-carbonyl)-5-oxodecahydro-1H-cyclopropa[d]pyrrolo[1,2-a]azocin-6-yl)carbamoyl)benzo[b]thiophen-5-yl)difluoromethyl)phosphonic acid], the IC50 in test [1] is 0.1 to 1 µM; in test [2], over 3 µM; in test [3], under 0.3 µM.

Turning to `O=C1CCC(N2Cc3c(OCCOCCOCCn4ccc([C@@H]5CN(C(=O)[C@@H]6CC[C@@H]7C[C@H]8C[C@H]8C[C@H](NC(=O)c8cc9cc(C(F)(F)P(=O)(O)O)ccc9s8)C(=O)N76)C6(CC6)C5)cc4=O)cccc3C2=O)C(=O)N1` (stereo partly drawn) [Compound 17, ((2-(((3S,6S,7aS,8aR,9aR)-3-((6R)-6-(1-(2-(2-(2-((2-(2,6-dioxopiperidin-3-yl)-1-oxoisoindolin-4-yl)oxy)ethoxy)ethoxy)ethyl)-2-oxo-1,2-dihydropyridin-4-yl)-4-azaspiro[2.4]heptane-4-carbonyl)-5-oxodecahydro-1H-cyclopropa[d]pyrrolo[1,2-a]azocin-6-yl)carbamoyl)benzo[b]thiophen-5-yl)difluoromethyl)phosphonic acid], the results for the half-maximal inhibitory concentration (IC50) in test [1], in test [2] and in test [3] were 1 to 10 µM, over 3 µM and 0.3 to 3 µM, respectively.
